Results: patent US10065928B2, “Quinolinone compound and use thereof” (Sunshine Lake Pharma Co., Ltd., priority 2014, dated 2018)

Assays:
[1] = Pharmacokinetic assay in male SD rats (iv and oral); assay type: in vivo; settings: for F: po 5 mg/kg vs iv 1 mg/kg; for AUC(0-t) / Cmax / Tmax / clearance / half-life / Vd: rat, plasma; for Vd: read-out: Vss
Description: Preparation of test compound solutions: the test compound solution was prepared for oral and intravenous administration by using 5% DMSO, 5% Solutol HS 15 and 90% normal saline.
Male SD rats weighing 190-250 g were randomly divided into two groups, and each group had three rats; one group was administered with test compound at a dose of 1.0 mg/kg by intravenous injection, the other group was administered with test compound at a dose of 5.0 mg/kg by oral. After administering, blood samples were collected at time points of 0.0833, 0.25, 0.5, 1.0, 2.0, 4.0, 7.0 and 24 h. Standard curve was plotted based on concentrations of the samples in a suitable range, and the concentrations of test compounds in plasma samples were determined by using AB SCIEX API4000 LC-MS/MS in MRM mode. Pharmacokinetic parameters were calculated according to drug concentration−time curve using a noncompartmental method with WinNonLin 6.3 software.

[2] = system: erythropoietin (EPO) production in Hep3B cells; assay: Activity in inducing erythropoietin (EPO) production in vitro, Hep3B cells, EPO ELISA; assay type: cell-based; settings: Homo sapiens, 24 h, EPO in supernatant by ELISA
Description: The activities of compounds of the invention in inducing erythropoietin (EPO) production were assessed by using human live cancer cell strain Hep3B (ATCC: American type culture collection, Manassas, Va.). Hep3B cells seeded in a 96-well plate with a density of 2.5×10^4 cells/well were cultivated overnight in DMEM culture medium (Dulbecco's Modified Eagle's Medium) at 37° C. in the presence of 10% fetal bovine serum (FBS). The next day, the supernatant liquid of culture medium was abandoned by suction, and to the residue was added fresh DMEM (containing 0.5% DMSO, 0.5% FBS) containing compound of the invention with a series of concentrations (0.31160.00 μM) or containing solvent used for comparison. The cells were cultivated at 37° C. for 24 h. The supernatant liquid was collected and the EPO concentration of the supernatant was quantified by using human EPO ELISA kit (Abcam). The activity of each compound in inducing erythropoietin (EPO) production was represented by half maximal effective concentration (EC50).

Cn1c(=O)c(C(=O)NCC(=O)O)c(O)c2ccc(Oc3ccc(F)cc3Cl)cc21 [Example 28, 2-(7-(2-chloro-4-fluorophenoxy)-4-hydroxy-1-methyl-2-oxo-1,2-dihydroquinoline-3-carboxamido)acetic acid] gave an F [1] of 107.8%, an AUC(0-t) ([1]; iv, 1 mg/kg) of 6200 ng·h/mL and a Cmax ([1]; iv, 1 mg/kg) of 4170 ng/mL. For the same compound, the Tmax ([1]; iv, 1 mg/kg) was 4.98 min, the clearance ([1]; iv, 1 mg/kg) was 2.67 mL/min/kg and the half-life ([1]; iv, 1 mg/kg) was 59.4 min. It also gave a Vd ([1]; iv, 1 mg/kg) of 0.217 L/kg, an AUC(0-t) ([1]; po, 5 mg/kg) of 33300 ng·h/mL and a Cmax ([1]; po, 5 mg/kg) of 11700 ng/mL. It also gave a Tmax ([1]; po, 5 mg/kg) of 55 min, a half-life ([1]; po, 5 mg/kg) of 106 min and an EC50 [2] of 1.51 µM.

Cn1c(=O)c(C(=O)NCC(=O)O)c(O)c2ccc(Oc3ccccc3)cc21 [Example 1, 2-(4-hydroxy-1-methyl-2-oxo-7-phenoxy-1,2-dihydroquinoline-3-carboxamido)acetic acid] showed an F [1] of 81.5%, an AUC(0-t) ([1]; iv, 1 mg/kg) of 9340 ng·h/mL and a Cmax ([1]; iv, 1 mg/kg) of 8910 ng/mL. The Tmax ([1]; iv, 1 mg/kg) was 4.98 min, the clearance ([1]; iv, 1 mg/kg) was 1.77 mL/min/kg and the half-life ([1]; iv, 1 mg/kg) was 467 min. For the same compound, the Vd ([1]; iv, 1 mg/kg) was 0.234 L/kg, the AUC(0-t) ([1]; po, 5 mg/kg) was 38400 ng·h/mL and the Cmax ([1]; po, 5 mg/kg) was 18400 ng/mL. The Tmax ([1]; po, 5 mg/kg) was 40 min, the half-life ([1]; po, 5 mg/kg) was 252 min and the EC50 [2] was 5.35 µM.

Cn1c(=O)c(C(=O)NCC(=O)O)c(O)c2ccc(Oc3ccc(Cl)cc3)cc21 [Example 13, 2-(7-(4-chlorophenoxy)-4-hydroxy-1-methyl-2-oxo-1,2-dihydroquinoline-3-carboxamido)acetic acid] showed an F [1] of 94.6%, an AUC(0-t) ([1]; iv, 1 mg/kg) of 13100 ng·h/mL and a Cmax ([1]; iv, 1 mg/kg) of 8480 ng/mL. It also gave a Tmax ([1]; iv, 1 mg/kg) of 4.98 min, a clearance ([1]; iv, 1 mg/kg) of 1.32 mL/min/kg and a half-life ([1]; iv, 1 mg/kg) of 57.5 min. For the same compound, the Vd ([1]; iv, 1 mg/kg) was 0.107 L/kg, the AUC(0-t) ([1]; po, 5 mg/kg) was 57000 ng·h/mL and the Cmax ([1]; po, 5 mg/kg) was 12300 ng/mL. The Tmax ([1]; po, 5 mg/kg) was 70.2 min, the half-life ([1]; po, 5 mg/kg) was 254 min and the EC50 [2] was 7.1 µM.

In the case of O=C(O)CNC(=O)c1c(O)c2ccc(Oc3ccccc3)cc2n(CC2CC2)c1=O [Example 2, 2-(1-(cyclopropylmethyl)-4-hydroxy-2-oxo-7-phenoxy-1,2-dihydroquinoline-3-carboxamido)acetic acid], the F [1] is reported as 100.4%, the AUC(0-t) ([1]; iv, 1 mg/kg) is reported as 20200 ng·h/mL and the Cmax ([1]; iv, 1 mg/kg) is reported as 7190 ng/mL. For the same compound, the Tmax ([1]; iv, 1 mg/kg) was 13.3 min, the clearance ([1]; iv, 1 mg/kg) was 0.833 mL/min/kg and the half-life ([1]; iv, 1 mg/kg) was 224 min. The Vd ([1]; iv, 1 mg/kg) was 0.159 L/kg, the AUC(0-t) ([1]; po, 5 mg/kg) was 101000 ng·h/mL and the Cmax ([1]; po, 5 mg/kg) was 13200 ng/mL. For the same compound, the Tmax ([1]; po, 5 mg/kg) was 130 min, the half-life ([1]; po, 5 mg/kg) was 239 min and the EC50 [2] was 5 µM.

In the case of Cn1c(=O)c(C(=O)NCC(=O)O)c(O)c2ccc(Oc3ccc(F)cc3)cc21 [Example 47, 2-(7-(4-fluorophenoxy)-4-hydroxy-1-methyl-2-oxo-1,2-dihydroquinoline-3-carboxamido)acetic acid], the F [1] is reported as 90.7%, the AUC(0-t) ([1]; iv, 1 mg/kg) is reported as 10200 ng·h/mL and the Cmax ([1]; iv, 1 mg/kg) is reported as 6400 ng/mL. The Tmax ([1]; iv, 1 mg/kg) was 4.98 min, the clearance ([1]; iv, 1 mg/kg) was 1.66 mL/min/kg and the half-life ([1]; iv, 1 mg/kg) was 63.6 min. The Vd ([1]; iv, 1 mg/kg) was 0.144 L/kg, the AUC(0-t) ([1]; po, 5 mg/kg) was 46200 ng·h/mL and the Cmax ([1]; po, 5 mg/kg) was 11500 ng/mL. For the same compound, the Tmax ([1]; po, 5 mg/kg) was 30 min, the half-life ([1]; po, 5 mg/kg) was 158 min and the EC50 [2] was 3.92 µM.

Cn1c(=O)c(C(=O)NCC(=O)O)c(O)c2ccc(Oc3cc(Cl)ccc3F)cc21 [Example 22, 2-(7-(5-chloro-2-fluorophenoxy)-4-hydroxy-1-methyl-2-oxo-1,2-dihydroquinoline-3-carboxamido)acetic acid] gave an F [1] of 108.6%, an AUC(0-t) ([1]; iv, 1 mg/kg) of 10800 ng·h/mL and a Cmax ([1]; iv, 1 mg/kg) of 10100 ng/mL. It also gave a Tmax ([1]; iv, 1 mg/kg) of 4.98 min, a clearance ([1]; iv, 1 mg/kg) of 1.56 mL/min/kg and a half-life ([1]; iv, 1 mg/kg) of 57.5 min. For the same compound, the Vd ([1]; iv, 1 mg/kg) was 0.146 L/kg, the AUC(0-t) ([1]; po, 5 mg/kg) was 58700 ng·h/mL and the Cmax ([1]; po, 5 mg/kg) was 10700 ng/mL. It also gave a Tmax ([1]; po, 5 mg/kg) of 50 min, a half-life ([1]; po, 5 mg/kg) of 167 min and an EC50 [2] of 4.18 µM.

For Cn1c(=O)c(C(=O)NCC(=O)O)c(O)c2ccc(Oc3cc(F)ccc3F)cc21 [Example 19, 2-(7-(2,5-difluorophenoxy)-4-hydroxy-1-methyl-2-oxo-1,2-dihydroquinoline-3-carboxamido)acetic acid], the F [1] was 98.7%, the AUC(0-t) ([1]; iv, 1 mg/kg) was 8260 ng·h/mL and the Cmax ([1]; iv, 1 mg/kg) was 6080 ng/mL. For the same compound, the Tmax ([1]; iv, 1 mg/kg) was 4.98 min, the clearance ([1]; iv, 1 mg/kg) was 2.06 mL/min/kg and the half-life ([1]; iv, 1 mg/kg) was 65.4 min. For the same compound, the Vd ([1]; iv, 1 mg/kg) was 0.164 L/kg, the AUC(0-t) ([1]; po, 5 mg/kg) was 41000 ng·h/mL and the Cmax ([1]; po, 5 mg/kg) was 9560 ng/mL. It also gave a Tmax ([1]; po, 5 mg/kg) of 30 min, a half-life ([1]; po, 5 mg/kg) of 84 min and an EC50 [2] of 2.26 µM.

With Cn1c(=O)c(C(=O)NCC(=O)O)c(O)c2ccc(Oc3cccc(Cl)c3Cl)cc21 [Example 30, 2-(7-(2,3-dichlorophenoxy)-4-hydroxy-1-methyl-2-oxo-1,2-dihydroquinoline-3-carboxamido)acetic acid] the EC50 [2] was 1.97 µM.
